# Patent publication US20250122183A1 (Pfizer Inc., priority 2023, published 2025)
# Read-outs that look alike come from different tables or passages of the source.
# Legend:
# Assay type in all cases: biochemical
# [1] = biological target: KAT7+BRPF1+EAF6+ING5 4 protein complex (Homo sapiens (Human), UniProt O95251); experiment: KAT7 BRPF1 assay (SAMDI-MS acetylation of H3 1-21 peptide); conditions: Morrison equation fit; replicate number in parentheses
# [2] = biological target: KAT7+JADE1+EAF6+ING5 4 protein complex (Homo sapiens (Human), UniProt O95251); experiment: KAT7 JADE1 assay (SAMDI-MS acetylation of H3 1-21 peptide); conditions: replicate number in parentheses
# KAT6A Full length enzyme = KAT6A Full length enzyme (Homo sapiens (Human), UniProt Q92794); experiment: KAT6A assay (SAMDI-MS acetylation of H3 1-21 peptide); conditions: replicate number in parentheses
# Sequence of KAT6A Full length enzyme (Q92794 other isoform, or with tags, fused parts or gaps): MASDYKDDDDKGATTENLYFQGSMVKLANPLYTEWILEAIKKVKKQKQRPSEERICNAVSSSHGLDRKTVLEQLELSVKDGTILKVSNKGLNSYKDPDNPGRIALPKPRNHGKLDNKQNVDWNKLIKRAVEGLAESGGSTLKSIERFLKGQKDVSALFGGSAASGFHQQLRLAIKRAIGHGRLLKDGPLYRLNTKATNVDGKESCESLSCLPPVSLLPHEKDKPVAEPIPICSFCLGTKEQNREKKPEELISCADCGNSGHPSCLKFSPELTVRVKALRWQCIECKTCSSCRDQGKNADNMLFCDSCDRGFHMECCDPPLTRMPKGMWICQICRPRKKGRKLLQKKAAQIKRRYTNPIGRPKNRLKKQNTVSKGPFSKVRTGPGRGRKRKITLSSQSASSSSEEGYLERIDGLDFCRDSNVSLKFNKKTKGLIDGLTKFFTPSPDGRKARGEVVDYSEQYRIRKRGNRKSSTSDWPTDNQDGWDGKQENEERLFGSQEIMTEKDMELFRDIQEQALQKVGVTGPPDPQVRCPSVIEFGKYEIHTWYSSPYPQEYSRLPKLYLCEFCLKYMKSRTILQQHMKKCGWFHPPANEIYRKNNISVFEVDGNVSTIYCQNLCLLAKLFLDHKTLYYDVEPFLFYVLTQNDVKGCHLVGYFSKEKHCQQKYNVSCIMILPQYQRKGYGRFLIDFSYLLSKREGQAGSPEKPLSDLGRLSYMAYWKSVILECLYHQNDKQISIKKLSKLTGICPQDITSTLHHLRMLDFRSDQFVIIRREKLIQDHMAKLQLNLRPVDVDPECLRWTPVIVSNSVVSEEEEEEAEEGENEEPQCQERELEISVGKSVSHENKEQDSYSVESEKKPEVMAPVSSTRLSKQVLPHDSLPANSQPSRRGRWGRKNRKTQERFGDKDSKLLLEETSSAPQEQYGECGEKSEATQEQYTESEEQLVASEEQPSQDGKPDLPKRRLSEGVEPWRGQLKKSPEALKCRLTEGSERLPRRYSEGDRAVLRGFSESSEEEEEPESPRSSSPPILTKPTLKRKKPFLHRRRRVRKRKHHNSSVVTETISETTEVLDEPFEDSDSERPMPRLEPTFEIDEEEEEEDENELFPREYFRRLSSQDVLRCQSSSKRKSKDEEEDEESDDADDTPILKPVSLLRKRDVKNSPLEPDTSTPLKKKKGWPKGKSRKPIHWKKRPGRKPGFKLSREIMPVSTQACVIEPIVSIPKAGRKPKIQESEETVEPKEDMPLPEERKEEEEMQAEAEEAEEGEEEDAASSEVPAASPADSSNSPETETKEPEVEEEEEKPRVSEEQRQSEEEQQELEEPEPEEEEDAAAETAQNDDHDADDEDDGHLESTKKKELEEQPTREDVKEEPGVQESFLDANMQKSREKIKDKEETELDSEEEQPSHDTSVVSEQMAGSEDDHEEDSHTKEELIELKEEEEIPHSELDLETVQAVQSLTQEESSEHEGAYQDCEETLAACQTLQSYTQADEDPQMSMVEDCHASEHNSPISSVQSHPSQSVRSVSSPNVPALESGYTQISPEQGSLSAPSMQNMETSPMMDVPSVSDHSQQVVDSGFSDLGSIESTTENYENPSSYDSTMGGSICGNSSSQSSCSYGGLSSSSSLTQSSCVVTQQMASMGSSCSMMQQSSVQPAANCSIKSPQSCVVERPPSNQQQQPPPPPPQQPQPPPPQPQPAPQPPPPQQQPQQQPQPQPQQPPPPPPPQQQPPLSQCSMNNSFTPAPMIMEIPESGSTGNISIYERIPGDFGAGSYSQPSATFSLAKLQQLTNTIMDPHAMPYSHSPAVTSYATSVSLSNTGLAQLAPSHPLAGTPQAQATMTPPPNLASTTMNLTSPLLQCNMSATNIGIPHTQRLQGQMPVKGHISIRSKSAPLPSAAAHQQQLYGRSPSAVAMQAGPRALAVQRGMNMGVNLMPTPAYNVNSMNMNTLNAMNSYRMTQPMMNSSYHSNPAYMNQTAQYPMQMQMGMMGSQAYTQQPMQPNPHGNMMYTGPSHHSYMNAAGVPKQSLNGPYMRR
# [3] = biological target: KAT7+BRPF2+EAF6+ING5 4 protein complex (Homo sapiens (Human), UniProt O95251); experiment: KAT7 BRPF2 assay (SAMDI-MS acetylation of H3 1-21 peptide); conditions: replicate number in parentheses
# KAT5 Full length enzyme = KAT5 Full length enzyme (Homo sapiens (Human), UniProt Q92993); experiment: KAT5 assay (SAMDI-MS acetylation of H4 1-21 peptide); conditions: replicate number in parentheses
# Sequence of KAT5 Full length enzyme (Q92993 whole entry): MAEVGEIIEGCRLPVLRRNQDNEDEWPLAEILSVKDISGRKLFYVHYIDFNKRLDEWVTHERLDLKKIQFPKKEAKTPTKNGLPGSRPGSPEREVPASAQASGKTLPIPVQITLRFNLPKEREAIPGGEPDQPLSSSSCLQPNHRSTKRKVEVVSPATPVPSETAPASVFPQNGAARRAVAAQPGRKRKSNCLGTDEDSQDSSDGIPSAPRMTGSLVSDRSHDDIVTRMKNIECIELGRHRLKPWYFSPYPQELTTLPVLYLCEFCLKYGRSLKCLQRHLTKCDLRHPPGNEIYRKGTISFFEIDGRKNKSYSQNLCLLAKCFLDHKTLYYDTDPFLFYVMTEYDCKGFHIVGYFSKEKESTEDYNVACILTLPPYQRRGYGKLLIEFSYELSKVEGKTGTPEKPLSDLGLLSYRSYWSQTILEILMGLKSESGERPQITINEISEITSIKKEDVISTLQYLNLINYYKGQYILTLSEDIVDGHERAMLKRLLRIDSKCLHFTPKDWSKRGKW
# KAT8 Full length enzyme = KAT8 Full length enzyme (Homo sapiens (Human), UniProt Q9H7Z6); experiment: KAT8 assay (SAMDI-MS acetylation of H3 1-21 peptide); conditions: replicate number in parentheses
# Sequence of KAT8 Full length enzyme (Q9H7Z6 whole entry): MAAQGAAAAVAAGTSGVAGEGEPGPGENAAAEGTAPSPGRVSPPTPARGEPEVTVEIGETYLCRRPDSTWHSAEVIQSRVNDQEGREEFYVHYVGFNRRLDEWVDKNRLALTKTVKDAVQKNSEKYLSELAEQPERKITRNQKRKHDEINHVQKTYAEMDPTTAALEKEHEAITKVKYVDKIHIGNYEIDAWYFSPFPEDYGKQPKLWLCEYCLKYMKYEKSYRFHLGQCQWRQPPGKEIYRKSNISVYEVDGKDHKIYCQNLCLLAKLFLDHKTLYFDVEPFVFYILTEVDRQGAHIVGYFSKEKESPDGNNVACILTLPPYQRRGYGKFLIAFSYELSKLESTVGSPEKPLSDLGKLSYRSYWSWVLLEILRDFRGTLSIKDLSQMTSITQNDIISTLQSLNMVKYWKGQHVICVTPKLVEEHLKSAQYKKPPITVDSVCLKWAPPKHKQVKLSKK
# [4] = Morrison equation fit, read-out: KAT7 JADE1 Ki (nM) (replicate number)
# [5] = Morrison equation fit, read-out: KAT6A Ki (nM) (replicate number)
# [6] = Morrison equation fit, read-out: KAT7 BRPF2 Ki (nM) (replicate number)
# [7] = Morrison equation fit, read-out: KAT5 Ki (nM) (replicate number)
# [8] = Morrison equation fit, read-out: KAT8 Ki (nM) (replicate number)
# [9] = read-out: KAT7 BRPF2 Ki (nM) (replicate)
# [10] = read-out: KAT7 JADE1 Ki (nM) (replicate)
# [11] = read-out: KAT6A Ki (nM) (replicate)
# [12] = read-out: KAT5 Ki (nM) (replicate)
# [13] = read-out: KAT8 Ki (nM) (replicate)
SMILES,Ki [1],"Ki [2, 4]",Ki (KAT6A Full length enzyme; [5]),"Ki [3, 6]",Ki (KAT5 Full length enzyme; [7]),Ki (KAT8 Full length enzyme; [8]),"Ki [3, 9]","Ki [2, 10]",Ki (KAT6A Full length enzyme; [11]),Ki (KAT5 Full length enzyme; [12]),Ki (KAT8 Full length enzyme; [13])
"COc1cc2c(NS(=O)(=O)c3c(OC)cc(C4CCCCN4C)cc3OC)noc2cc1Nc1cc(C2CC2)n[nH]1 (racemic) [Example 155, N-{6-[(3-cyclopropyl-1 H-pyrazol-5-yl)amino]-5-methoxy-1,2-benzoxazol-3-yl}-2,6-dimethoxy-4-(1-methylpiperidin-2-yl)benzene-1-sulfonamide]",14.9 nM,24.3 nM,2.9 nM,,,,,,,,
"COc1cc2c(NS(=O)(=O)c3c(OC)cc(C4COCC(C)(C)O4)cc3OC)noc2cc1Nc1cc(C2CC2)n[nH]1 (single isomer, unassigned) [Example 184, N-{6-[(3-cyclopropyl-1 H-pyrazol-5-yl)amino]-5-methoxy-1,2-benzoxazol-3-yl}-4-(6,6-dimethyl-1,4-dioxan-2-yl)-2,6-dimethoxybenzene-1-sulfonamide]",,4.7 nM,1.8 nM,1.6 nM,60.7 nM,1030 nM,,,,,
"COc1cc2c(NS(=O)(=O)c3c(OC)cc(C4COC(C)(C)CO4)cc3OC)noc2cc1Nc1cc(C2CC2)n[nH]1 (single isomer, unassigned) [Example 185, N-{6-[(3-cyclopropyl-1 H-pyrazol-5-yl)amino]-5-methoxy-1,2-benzoxazol-3-yl}-4-(5,5-dimethyl-1,4-dioxan-2-yl)-2,6-dimethoxybenzene-1-sulfonamide]",,1.8 nM,0.3 nM,0.9 nM,1 nM,1220 nM,,,,,
"COc1cc2c(NS(=O)(=O)c3c(OC)cc(C4COC(C)(C)CO4)cc3OC)noc2cc1Nc1cc(C2CC2)n[nH]1 (single isomer, unassigned) [Example 186, N-{6-[(3-cyclopropyl-1 H-pyrazol-5-yl)amino]-5-methoxy-1,2-benzoxazol-3-yl}-4-(5,5-dimethyl-1,4-dioxan-2-yl)-2,6-dimethoxybenzene-1-sulfonamide]",,3.6 nM,0.8 nM,1.5 nM,5.8 nM,590 nM,,,,,
"CCOc1cccc(OC)c1S(=O)(=O)Nc1noc2cc(Nc3cc[nH]n3)c(OC)cc12 [Example 30, 2-ethoxy-6-methoxy-N-{5-methoxy-6-[(1H-pyrazol-3-yl)amino]-1,2-benzoxazol-3-yl}benzene-1-sulfonamide]",,248 nM,0.5 nM,26 nM,605 nM,676 nM,,,,,
"COc1cc2c(NS(=O)(=O)c3c(OC)cccc3OC3CCC3)noc2cc1Nc1cc[nH]n1 [Example 33, 2-(cyclobutyloxy)-6-methoxy-N-{5-methoxy-6-[(1H-pyrazol-3-yl)amino]-1,2-benzoxazol-3-yl}benzene-1-sulfonamide]",15.4 nM,142 nM,,,988 nM,733 nM,,,,,
"COc1cc2c(NS(=O)(=O)c3c(OC)cccc3OC)noc2cc1Nc1c(C#N)c(C)nn1C [Example 46, N-{6-[(4-cyano-1,3-dimethyl-1H-pyrazol-5-yl)amino]-5-methoxy-1,2-benzoxazol-3-yl}-2,6-dimethoxybenzene-1-sulfonamide]",> 16100 nM,> 9770 nM,> 377 nM,,,,,,,,
"COc1cc2c(NS(=O)(=O)c3c(OC)cccc3OC)noc2cc1Nc1cc(C)nn1CCO [Example 59, N-(6-{[1-(2-hydroxyethyl)-3-methyl-1H-pyrazol-5-yl]amino}-5-methoxy-1,2-benzoxazol-3-yl)-2,6-dimethoxybenzene-1-sulfonamide]",580 nM,> 2870 nM,,,,,,,,,
"CCOc1cccc(OC)c1S(=O)(=O)Nc1noc2cc(Nc3cc(C(C)C)[nH]n3)c(OC)cc12 [Example 83, 2-ethoxy-6-methoxy-N-(5-methoxy-6-{[5-(propan-2-yl)-1H-pyrazol-3-yl]amino}-1,2-benzoxazol-3-yl)benzene-1-sulfonamide]",,60.1 nM,2.9 nM,7.8 nM,502 nM,10400 nM,,,,,
"CCc1cc(Nc2cc3onc(NS(=O)(=O)c4ccc(C(=O)NCCCCCN)cc4OC)c3cc2OC)[nH]n1 [Example 96, N-(5-aminopentyl)-4-({6-[(3-ethyl-1H-pyrazol-5-yl)amino]-5-methoxy-1,2-benzoxazol-3-yl}sulfamoyl)-3-methoxybenzamide]",,103 nM,7.3 nM,13.6 nM,2050 nM,> 13000 nM,,,,,
"CCOc1cccc(OC)c1S(=O)(=O)Nc1noc2cc(Nc3cc(C)[nH]n3)c(OC)cc12 [Example 99, 2-ethoxy-6-methoxy-N-{5-methoxy-6-[(5-methyl-1H-pyrazol-3-yl)amino]-1,2-benzoxazol-3-yl}benzene-1-sulfonamide]",,82.6 nM,0.5 nM,5.5 nM,388 nM,4840 nM,,,,,
"CCc1cc(Nc2cc3onc(NS(=O)(=O)c4ccc(C(=O)NCCCCCNC(=O)c5ccc(-c6nnc(C)nn6)cc5)cc4OC)c3cc2OC)[nH]n1 [Example 138, 4-({6-[(3-Ethyl-1 H-pyrazol-5-yl)amino]-5-methoxy-1,2-benzoxazol-3-yl}sulfamoyl)-3-methoxy-N-{5-[4-(6-methyl-1,2,4,5-tetrazin-3-yl)benzamido]pentyl}benzamide]",,40.6 nM,1.2 nM,5.6 nM,195 nM,> 13000 nM,,,,,
"COc1cc2c(NS(=O)(=O)c3c(OC)cc([C@H]4CCCN4C)cc3OC)noc2cc1Nc1cc(C2CC2)n[nH]1 [Example 188, N-{6-[(3-cyclopropyl-1 H-pyrazol-5-yl)amino]-5-methoxy-1,2-benzoxazol-3-yl}-2,6-dimethoxy-4-[(2R)-1-methylpyrrolidin-2-yl]benzene-1-sulfonamide]",,8.4 nM,2.5 nM,2.9 nM,140 nM,3690 nM,,,,,
"COc1cc2c(NS(=O)(=O)c3c(OC)cc(-c4ncc(C)cn4)cc3OC)noc2cc1Nc1cc(C2CC2)n[nH]1 [Example 213, N-{6-[(3-cyclopropyl-1H-pyrazol-5-yl)amino]-5-methoxy-1,2-benzoxazol-3-yl}-2,6-dimethoxy-4-(5-methylpyrimidin-2-yl)benzene-1-sulfonamide]",1.7 nM,3.9 nM,0.5 nM,,,1570 nM,,,,,
"COc1cc2c(NS(=O)(=O)c3c(OC)cc(N(C)C4COC4)cc3OC)noc2cc1Nc1cc(C2CC2)n[nH]1 [Example 248, N-{6-[(3-cyclopropyl-1H-pyrazol-5-yl)amino]-5-methoxy-1,2-benzoxazol-3-yl}-2,6-dimethoxy-4-[methyl(oxetan-3-yl)amino]benzene-1-sulfonamide]",,,,,,,2.6 nM,5.8 nM,1.2 nM,,
"COc1cc2c(NS(=O)(=O)c3c(OC)cc(N4CC[C@@H](F)C4)cc3OC)noc2cc1Nc1cc(C2CC2)n[nH]1 [Example 249, N-{6-[(3-cyclopropyl-1H-pyrazol-5-yl)amino]-5-methoxy-1,2-benzoxazol-3-yl}-4-[(3R)-3-fluoropyrrolidin-1-yl]-2,6-dimethoxybenzene-1-sulfonamide]",,,,,,,0.3 nM,1.7 nM,0.3 nM,8.7 nM,104 nM
"COc1cc2c(NS(=O)(=O)c3c(OC)cc(N4CC[C@@H](OC)C4)cc3OC)noc2cc1Nc1cc(C2CC2)n[nH]1 [Example 250, N-{6-[(3-cyclopropyl-1H-pyrazol-5-yl)amino]-5-methoxy-1,2-benzoxazol-3-yl}-2,6-dimethoxy-4-[(3R)-3-methoxypyrrolidin-1-yl]benzene-1-sulfonamide]",,,,,,,0.9 nM,1.3 nM,0.2 nM,,
"COc1cc2c(NS(=O)(=O)c3c(OC)cc(N4CCN(C)CC4)cc3OC)noc2cc1Nc1cc(C2CC2)n[nH]1 [Example 251, N-{6-[(3-cyclopropyl-1H-pyrazol-5-yl)amino]-5-methoxy-1,2-benzoxazol-3-yl}-2,6-dimethoxy-4-(4-methylpiperazin-1-yl)benzene-1-sulfonamide]",,,,,,,2.1 nM,6.2 nM,1 nM,67 nM,1150 nM
"COc1cc2c(NS(=O)(=O)c3c(OC)cc(N4CCN(C)C(=O)C4)cc3OC)noc2cc1Nc1cc(C2CC2)n[nH]1 [Example 254, N-{6-[(3-cyclopropyl-1H-pyrazol-5-yl)amino]-5-methoxy-1,2-benzoxazol-3-yl}-2,6-dimethoxy-4-(4-methyl-3-oxopiperazin-1-yl)benzene-1-sulfonamide]",,,,,,,1.2 nM,6.6 nM,0.7 nM,54.5 nM,1260 nM
"COc1cc2c(NS(=O)(=O)c3c(OC)cc(N4C(=O)CCC4(C)C)cc3OC)noc2cc1Nc1cc(C2CC2)n[nH]1 [Example 256, N-{6-[(3-cyclopropyl-1H-pyrazol-5-yl)amino]-5-methoxy-1,2-benzoxazol-3-yl}-4-(2,2-dimethyl-5-oxopyrrolidin-1-yl)-2,6-dimethoxybenzene-1-sulfonamide]",,,,,,,0.8 nM,4.7 nM,1.1 nM,,
